Key:
NR0B1 = assay: Western blotting, NR0B1 protein expression; type: cell-based; settings: 10 nM, 24 hours; compared with saline control, p<0.0471
Experimental: Western Blotting. Expression Western blotting was performed to assess the expression of NR0B1 (EWS:Fli1 target gene) and Rad 51 (DNA homologous recombination repair HRR) at protein level as provisory described in Lin et al 2021. Briefly, cells were grown to ˜70% confluence and exposed to 10 nM of MithA/MANP (final concentration) or DMSO, (0.01% v/v) vehicle and blank polymer for 24 hours. Lysates were collected in cold RIPA lysis buffer supplemented with 1×HALT protease/phosphatase inhibitor cocktail (Thermo Scientific) and clarified by centrifugation. Protein concentration of the supernatant was determined by BCA assay (Thermo Scientific), and then diluted in 4× loading buffer (Licor Inc., Lincoln, Nebr.) containing 1× NuPAGE reducing agent (Life Technologies). Prior to electrophoresis, samples were denatured by incubating at 70° C. for 10 minutes. Samples were then resolved (25 μg/lane) on 4-20% gradient SDS-PAGE gels and transferred to low-fluorescence PVDF membranes (Bio-Rad Inc., Hercules Calif.). Transfer efficiency and equivalence of total protein load was assessed using Revert 700 Total Protein Stain kits (Licor Inc). Membranes were then washed, blocked in Odyssey Blocking Buffer (PBS) (Licor Inc), and incubated with primary antibodies (Table S4.3 above) overnight at 4° C. diluted in blocking buffer.

CHLA-25 = assay: XTT cell viability assay, CHLA-25; type: cell-based; settings: 72 h, read-out: Viability IC50
Experimental: (§1) Cell viability assays. For viability assays, four EWS:Fli1 fusion tumor cell lines (RD-ES, SK-ES-1, A673, and TC-71), one human embryonic kidney cell line (293.T), one ES tumor cell line with ERG fusion (CHLA-25), one fetal kidney cell line (HEK293.T), one hepatoblastoma cell line (HepG2), one chronic myeloid leukemia (MEG-01), and one acute monocytic leukemia (THP-1) cell line were plated at 5000 cells/well in 100 μL growth media in 96-well plates. After overnight incubation, 50 μL of growth media containing mithramycin A (MithA) (Cayman Chemical, Ann Arbor, Mi. Item Number 11434) or boronic acid-conjugated nano-MithA (MANP) (0.12 nM to 500 nM, final) or dimethyl sulfoxide (DMSO, 0.01% v/v) vehicle was added to the wells, and cell viability assays were performed 72 hours later. The cells were incubated with the activated-XTT solution (mixture of 2% final concentration of activation reagent with the XTT reagent) from ATCC (Catalog Number 30-1011K, XTT Cell Proliferation Assay Kit) for 3 hours prior to recording absorbance. The cell viability was determined by measuring the absorbance wavelength at 475 nm and reference wavelength at 650 nm on an Infinite M200 plate reader (Tecan Group, Ltd. Mannedorf, Switzerland). […]

RD-ES = assay: XTT cell viability assay, RD-ES; type: cell-based; settings: 72 h, read-out: Viability IC50
Experimental: as §1

THP-1 = assay: XTT cell viability assay, THP-1; type: cell-based; settings: Homo sapiens, THP-1, 72 h, read-out: Viability IC50
Experimental: as §1

[1] = human, in vivo; cited from earlier work
Female C57BL/6J mice [2] = assay: In vivo toxicity: liver weight and histopathology
Experimental: (§2) In vivo toxicity of MithA and MANP. Cohorts of n=6-7 C57BL/6J females, 8-10 wko were randomized to receive either intravenous or intraperitoneal administration of saline control vehicle, blank polymer, MithA, or MANP as described in TABLES 2A and 2B. Body weight loss exceeding 20%, death, morbidity, changes in behavior, and any other sign of local or systemic toxicity were recorded.
The liver was harvested for histopathological assessment, weighed, and fixed in 4% paraformaldehyde for 24 hours in the 4° C. and processed for and embedded in paraffin. After embedding, sections were cut at […] thickness and mounted on poly-L-lysine-coated glass slides. Sections were stained with Ehrlich's Hematoxylin and Eosin-Phloxine solutions, Periodic Acid-Schiff (+/− pretreatment with 1% Diastase for 30 min), or Hall's Bile stain with Picrosirius red counter stain. Slides were then dehydrated, cover slipped and imaged on Nikon E800 microscope for qualitative assessment of liver injury. In vivo toxicity of Mitha and MANP study design. (A) study design for supplemental figures. (B) study design for FIGS. 11A-11Q.

Female C57BL/6J mice [3] = assay: In vivo toxicity: hematology; parameters: lymphocytes (% WBC) / granulocytes (% WBC): concentration or dose not given beside the values
Experimental: as §2
For hematology, blood was collected 24 h after the last dose by venipuncture of the tail or mandibular veins. Blood (>100 uL) was transferred to Sarstedt EDTA tubes and held on ice until differential complete blood count was performed using Abaxis VetScan HM2 hematology analyzer (Union City, Calif.). Samples were analyzed within 8 hours of collection. Giemsa-stained blood smears were also obtained for manual differentiation of granulocytes, as the instrument is not able to discriminate neutrophils, eosinophils, or basophils due to inefficient lysis of mouse granulocytes by this system.

TC-71 = assay: XTT cell viability assay, TC-71; type: cell-based; settings: TC-71, 72 h, read-out: Viability IC50
Experimental: as §1

[4] = system: TC-71 (EWS:Fli1+) xenograft tumor; settings: 1 mg/kg, five i.v. injections on alternating days
Experimental: In vivo anti-tumor efficacy. […] On alternating days following inoculation, body weight was recorded, and tumor volume was measured using digital calipers. As each mouse achieved a measurable tumor volume of 200 mm^3, they were randomly allocated saline control vehicle, blank polymer (nano-formulation without MithA conjugation), 1 mg/kg MithA, or 1 mg/kg MANP (1 mg/kg eq. MithA) treatment groups until n=10/group was reached. Mice received 5 intravenous injections of the designated treatment via tail vein, given on alternating day schedule (e.g. M-W-F-Su-Tu). After treatment, tumors were allowed to grow to 1.5 cm^3, at which point the mice were euthanized by CO2 inhalation (FIG. 4.1.). The tumor volume was calculated by the equation: Tumor volume=(L×W^2)/2, in which L and W are the longest and shortest in tumor diameters (mm), respectively. Survival duration was calculated as the number of days for tumor volume to increase from 200 to 1500 mm^3.
Statistical analysis. Microsoft Excel was used to organize data and obtain descriptive statistics (mean and standard deviation). […] For Western blot, tumor-bearing xenograft, and toxicity studies, one-way ANOVA with Bonferroni correction and multiple comparisons were performed using Prism 9. […] For xenograft studies, survival data were used to construct Kaplan-Meier plots and statistical significance of differences between treatment groups (n=10-11/group) was determined by the log-rank test. Differences were accepted as statistically significant when the p-value was ≤0.05.

SK-ES-1 = assay: XTT cell viability assay, SK-ES-1; type: cell-based; settings: Homo sapiens, SK-ES1, 72 h, read-out: Viability IC50
Experimental: as §1

[5] = five doses 2 mg/kg (eq) on alternating days
[6] = 5x2 mg/kg i.v., in comparison to saline vehicle

In the case of `CO[C@H](C(=O)[C@@H](O)[C@@H](C)O)[C@@H]1Cc2cc3cc(O[C@H]4C[C@@H](O[C@H]5C[C@@H](O)[C@H](O)[C@@H](C)O5)[C@H](O)[C@@H](C)O4)c(C)c(O)c3c(O)c2C(=O)[C@H]1O[C@H]1C[C@@H](O[C@H]2C[C@@H](O[C@H]3C[C@](C)(O)[C@H](O)[C@@H](C)O3)[C@@H](O)[C@@H](C)O2)[C@H](O)[C@@H](C)O1` [MithA, (2S,3S)-2-[(2S,4R,5R,6R)-4-[(2S,4R,5S,6R)-4-[(2S,4S,5R,6R)-4,5-dihydroxy-4,6-dimethyloxan-2-yl]oxy-5-hydroxy-6-methyloxan-2-yl]oxy-5-hydroxy-6-methyloxan-2-yl]oxy-3-[(1 S,3S,4R)-3,4-dihydroxy-1-methoxy-2-oxopentyl]-6-[(2S,4R,5R,6R)-4-[(2S,4R,5S,6R)-4,5-dihydroxy-6-methyloxan-2-yl]oxy-5-hydroxy-6-methyloxan-2-yl]oxy-8,9-dihydroxy-7-methyl-3,4-dihydro-2H-anthracen-1-one], the NR0B1 protein expression (NR0B1) is reported as “significantly suppressed”, the IC50 (CHLA-25) is reported as 0.349 µM and the IC50 (RD-ES) is reported as 0.0062 µM. The IC50 (THP-1) was 0.234 µM, the “ALT and AST elevations, increase in geometric mean” value [1] was “greater than 13 fold” and the “treated patients who developed hepatotoxicity” value [1] was 10/12. For the same molecule, the liver weight (Female C57BL/6J mice [2]; 5 consecutive days i.p. 4 mg/kg, vs saline) was “liver weight reduction”, the liver weight (Female C57BL/6J mice [2]; 5x2 mg/kg i.v. alternating days) was “liver weight reduction” and the liver histology (Female C57BL/6J mice [2]; 5x4 mg/kg i.p.) was “periportal necrosis with central fatty degeneration, glycogen depletion and bile acid retention”. The “liver histology, Hall's bile stain” value (Female C57BL/6J mice [2]; [5]) was “retention of bile in large vacuoles”, the “liver histology, Hematoxylin and Eosin stain” value (Female C57BL/6J mice [2]; [5]) was “periportal hepatocellular necrosis and infiltrates of inflammatory cells, and distension of collecting ducts” and the “liver histology, Periodic Acid-Schiff (glycogen)” value (Female C57BL/6J mice [2]; five doses 2 mg/kg on alternating days) was “glycogen depletion”. The “thrombocytopenia / platelet dysfunction” value (Female C57BL/6J mice [3]; 5x2 mg/kg (eq.) i.v.) was “displayed thrombocytopenia”, the “decrease of plateletcrit (%)” value (Female C57BL/6J mice [3]; [6]) was 3.4 fold and the “decrease of total platelet count” value (Female C57BL/6J mice [3]; [6]) was 3.6 fold. For the same molecule, the “red blood cell (RBC) parameters” value (Female C57BL/6J mice [3]; 5x4 mg/kg i.p.) was “no significant changes”, the “total white blood cell (WBC) count” value (Female C57BL/6J mice [3]; 5x4 mg/kg i.p., relative to controls) was “no significant difference” and the “granulocytes (% Gran)” value (Female C57BL/6J mice [3]; 5x4 mg/kg i.p., vs saline (P=0.001)) was “increased”. For the same molecule, the “lymphocytes (% LYM)” value (Female C57BL/6J mice [3]; 5x4 mg/kg i.p., vs saline (p<0.0001)) was “decreased”, the “monocytes (% MON)” value (Female C57BL/6J mice [3]; 5x4 mg/kg i.p., vs saline (p=0.0187)) was “increased” and the “lymphocytes (% WBC)” value (Female C57BL/6J mice [3]; 5xmg/kg i.v., compared to saline vehicle) was “reduced”. For the same molecule, the “granulocytes (% WBC)” value (Female C57BL/6J mice [3]; 5xmg/kg i.v., compared to saline vehicle (p<0.0001)) was “increased”, the RBC parameters (Female C57BL/6J mice [3]; five i.v. injections on alternating days, between treatment groups) was “No changes” and the plateletcrit (Female C57BL/6J mice [3]; single i.p. 4 mg/kg, vs saline) was “significant reductions”. For the same molecule, the mean corpuscular hemoglobin (Female C57BL/6J mice [3]; single i.p. 4 mg/kg, vs saline (p=0.002)) was “significant reductions”, the total platelet count (Female C57BL/6J mice [3]; single i.p. 4 mg/kg, vs saline (p=0.0251)) was “significant reductions” and the IC50 (TC-71) was 0.0093 µM. The “body weight in tumor-bearing mice” value [4] was “no loss of body weight was observed”, the “survival, range” value [4] was 12 to 35 days and the median survival ([4]; days for tumor to grow from 200 to 1500 mm^3) was 20 days. It also gave an IC50 (SK-ES-1) of 0.0119 µM.

Reference: patent publication US20230233695A1, “MITHRAMYCIN A NANOPARTICLES FOR CANCER TREATMENT” (priority 2021, published 2023)
